# Measurements taken from patent publication US9072901B2, “Cardiac neuromodulation and methods of using same” (The Board of Regents of the University of Oklahoma, priority 2001, dated 2015).
# No end group written: not given here.
# Tests used:
# [1] = test system: canine nodose ganglion afferent neuron; test: Nodose ganglion afferent neuron activity after epicardial CPA; assay type: in vivo; details: CPA via 1 cm×1 cm pledget on ventral left ventricular epicardium
# Method: Panel B was obtained 1 minute after terminating CPA application.
# [2] = test system: canine intrinsic cardiac neurons; test: Intracellular recording of canine intrinsic cardiac neurons in vitro, ACh pulse with or without hexamethonium; assay type: cell-based; details: hexamethonium 100 μM for 5 min in perfusate
# Method: The horizontal bar under the traces indicates application of a 10 ms pulse of ACh (1 mM) from the tip of a pipette placed near the ganglion. A, CONTROL. […] DCX. […] During the repolarization phase, the membrane potential began to oscillate with APs being discharged on oscillatory peaks. […] DCX. […] The bursting of activity is reflective of the enhanced muscarinic receptor-mediated responses of these neurons.
# Intrinsic cardiac neurons remain responsive to cholinergic synaptic inputs. The cholinergic receptor systems are differentially affected by disruption of nerve inputs to the ICN, with muscarinic responsiveness being enhanced (FIG. 9). Non-cholinergic neurotransmitters can modulate the activity of these neurons. FIG. 10 illustrates the interaction between acetylcholine and the peptide, substance P.
# [3] = test system: intrinsic cardiac neurons; test: Activity generated by right atrial (intrinsic cardiac) neurons recorded in situ in anesthetized dogs; assay type: in vivo, dog; details: for enhancement of intrinsic cardiac neuronal activity: epicardial veratridine 7.5 μM
# [4] = test system: right atrial ganglionated plexus neurons; test: Activity of right atrial ganglionated plexus neuron populations during epicardial chemical stimuli; assay type: in vivo; details: ventricular sensory inputs
# Source text: Arrow indicates application of veratridine to the epicardium of the left ventricle. At baseline, note the cycling of activity with a periodicity of 20 seconds. In the unstressed condition, this bursting is usually associated with increased coordination of activity between the two populations of neurons (see bottom trace).
# Sub-populations of right atrial neurons that receive afferent inputs from sensory neurites in both ventricles are responsive to local mechanical stimuli and the nitric oxide donor nitroprusside. Neurons in at least one ganglionated plexus locus were activated by epicardial application of veratridine, bradykinin, the β1-adrenoceptor agonist prenaterol or the excitatory amino acid glutamate. […] These periods of coupled activity occurred every 30-50 second during basal states, as well as when neuronal activity was enhanced by chemical activation of their ventricular sensory inputs. It has been observed that neurons throughout one intrinsic cardiac ganglionated plexus receive inputs from mechano- and chemo-sensory neurites located in both ventricles. That such neurons respond to multiple chemical stimuli, including those liberated from adjacent adrenergic efferent nerve terminals, indicates the complexity of the integrative processing of information that occurs within the intrinsic cardiac nervous system.
# Intraganglionic interactions within the intrinsic cardiac nervous system depend in large part on common shared afferent inputs and/or interconnections mediated via local circuit neurons. In order to evaluate these interactions, separate populations of neurons were recorded in the ventral right atrial ganglionated plexus (RAGP) in basal states and during discrete mechanical and chemical stimuli of ventricular neurites. In basal states, the coherence of activity generated by the two populations of RAGP neurons fluctuated with a periodicity of 30-50 s and with an average peak coherence of 0.88±0.03. Coherence was increased in conjunction with the enhanced neuronal activity evoked during exposure of ventricular sensory inputs to mechanical and chemical (nitroprusside, veratridine, bradykinin, adrenergic agonists or glutamate) stimuli.
# [5] = test system: T3 neurons; test: T3 neuron activity with intrapericardial bradykinin and glutamate pledget on C1-C2 segments; assay type: in vivo, rats
# Source text: FIGS. 19A-19F show responses of T3 cell to chemical stimulation of glutamate before and after rostral C1 spinal transection. The responses were evoked by intrapericardial injections of bradykinin (BK). Saline was used as the control. Pledgets of glutamate placed on the C1-C2 dorsal spinal cord (B) decreased the discharge rate of the cell for the three minute period it was applied. The background activity recovered after glutamate was removed. […] The presence of glutamate attenuated this response (E). The increased rate of discharge to BK injections was again observed when glutamate was removed (F). In each panel, action potentials were recorded on a rate histogram.
# Originally, it was assumed that supraspinal pathways are necessary for descending inhibitory effects of visceral afferents on sensory neurons. […] Thus, it appears that the upper cervical segments play an important role in the hierarchy that controls the efferent outflow to the intrathoracic and intrinsic cardiac nervous system. […]
# Descending modulation of thoracic cardiac nociceptive transmission by upper cervical spinal neurons. […] Methods: Extracellular potentials of single T3 neurons were recorded in pentobarbital anesthetized male rats. […]
# [6] = test system: intrinsic cardiac neurons; details: direct application; cited from earlier work
# [7] = test system: right atrial neurons; test: Ventricular unipolar electrograms (ST segment) with ANG II administered to right atrial neurons, ameroid constrictor chronic ischemia; assay type: in vivo; details: ANG II 40 μg/min
# Method: Under basal conditions, electrograms display slight ST segment displacement (panel B). Transient rapid ventricular pacing (240/min for 1 min), used to increase myocardial O2 demand, precipitates ischemic episodes. In the first beats following rapid pacing, ST segment displacement is inhomogeneously augmented in the LCx territory. Marked ST segment depression (−2 to −6 mV) occurs in some areas, whereas ST elevation (+2 to +15 mV) develops in others (panel C). […] Note that the ST changes, induced by ANG II, occurred at the apical margin of the plaque electrode, i.e., at the periphery of the LCx territory (Panel D). In contrast, the changes induced by transient rapid pacing occurred at a more central location in the LCx territory (panel C).
# Note that the ST changes occurred at the apical margin of the plaque electrode (panel B). Thus, the ST segment changes are caused by direct or indirect activation of ganglionated plexus neurons that project efferent axons to the specific ventricular areas in which the changes occurred. […]
# Dorsal column activation stabilizes ischemic myocardial electrical dysfunction. […] Four weeks later, under general anesthesia multiple ventricular unipolar electrograms were recorded in the normal and ischemic left ventricle during basal states and when ANG II (40 μg/min; 1 minute) was administered to right atrial neurons before and after DCA. […]
# [8] = test system: right atrial ganglionated plexus; test: ISF, aorta and coronary sinus catecholamines (microdialysis) during ANG II infusion into blood supply of the RAGP; assay type: in vivo, dog
# Method: FIGS. 8A-8C show ISF, aorta and coronary sinus norepinephrine (NE) and epinephrine (EPI) levels in response to stellate stimulation (4 Hz), angiotensin II (ANG II) infusion (100 μM, 1 ml/min) into the blood supply for the Right Atrial Ganglionated Plexus (RAGP) and Dorsal Cord Activation (DCA, 50 Hz, 200 μsec, 90% motor threshold). ISF fluids were sampled using the microdialysis techniques summarized in Aim 3.
# LV dP/dt correlated with ISF NE release. However, NE spillover into the coronary sinus occurred only during sympathetic efferent neuronal stimulation (FIG. 8C). […] This differential release of catecholamines from cardiac nerves occurred in spite of a 40-fold higher NE compared to EPI content in the dog LV myocardium (237±33 vs. 6.4±1.0 ng/g). […] Dorsal cord activation (FIG. 8B) evoked a release of EPI into the ISF equivalent to stellate stimulation, but with only a modest increase in ISF NE.
# [9] = test system: intracardiac neuron; test: Inhibition of ACh-evoked responses by substance P, intracellular recording; assay type: cell-based; details: bath application of 10 μM substance P; 28 ms puffs of ACh 10 mM
# Method: Local application of ACh evoked action potentials. These ACh evoked potentials were blocked during bath application of 10 μM substance P (see horizontal bar).
molecule,measurement,setting,value
OC[C@H]1O[C@@H](n2cnc3c(NC4CCCC4)ncnc32)[C@H](O)[C@@H]1O [CPA],activity generated by nodose ganglion afferent neuron,[1],enhancement of the activity
C[N+](C)(C)CCCCCC[N+](C)(C)C [Hexamethonium],ACh-induced depolarization,[2]; CONTROL neuron,reduced the amplitude of ACh-induced depolarization relative to the control state; no APs were generated
same,ACh-induced depolarization,[2]; DCX neuron,reduced the amplitude of ACh-induced depolarization; AP discharge was facilitated
OC[C@@H](O)[C@H]1O[C@@H]2O[C@H](C(Cl)(Cl)Cl)O[C@@H]2[C@H]1O [alpha chloralose],effect of each bolus on neuronal activity,"[3]; dog, in vivo, iv",suppressed neuronal activity for a few minutes
N[C@@H](CCC(=O)O)C(=O)O [glutamate],neuronal response to epicardial application,[4],activated
same,spontaneous activity of T3 neurons and excitatory inputs from cardiac sensory neurons,[5]; after transection at the rostral C1 spinal cord,still reduced
same,T3 neurons in which spontaneous activity and/or excitatory responses to intrapericardial bradykinin were inhibited,"[5]; glutamate pledget 1 M, 1-3 min, on C1-C2",77%
NC[C@H](O)c1ccc(O)c(O)c1 [norepinephrine],identified intrinsic cardiac neurons whose properties are modified,[6],about 25%
CC(C)NC[C@H](O)COc1ccc(O)cc1 [prenaterol],neuronal response to epicardial application,[4],activated
CC(C)(C)NCC(O)c1cc(O)cc(O)c1 (centres unmarked) [terbutaline],neuronal response to epicardial application,[4],inconsistent neuronal responses
COc1ccc(C(=O)O[C@H]2CC[C@@]3(C)[C@@H]4CC[C@H]5[C@]6(O)C[C@H](O)[C@@]7(O)[C@@H](CN8C[C@@H](C)CC[C@H]8[C@@]7(C)O)[C@]6(O)C[C@@]53O[C@]24O)cc1OC [veratridine],intrinsic cardiac neuronal activity with veratridine,"[3]; after application of SCS, four animals, from 11.8±2.5",16.5±4.6 impulses/min
same,intrinsic cardiac neuronal activity with veratridine,"[3]; after completing the protocols, all 10 dogs, from 25.6±5.7",40.6±12.5 impulses/min
same,intrinsic cardiac neuronal activity with veratridine,"[3]; before application of SCS, four animals",40.5±26.7
same,enhancement of intrinsic cardiac neuronal activity,"[3]; after application of SCS, four animals, no significant difference",39%
same,enhancement of intrinsic cardiac neuronal activity,"[3]; before application of SCS, four animals, P<0.05",124%
same,increase of intrinsic cardiac neuronal activity,"[3]; epicardial veratridine, after completing the protocols (following SCS and regional ventricular ischaemia), all 10 dogs, P<0.05",58%
"angiotensin II (DRVYIHPF; Angiotensin-2; UniProt P01019 25-32, looked up) [ANG II]",regional ST segment changes,"[7]; ischemic ventricle, 1 minute",increased the area and magnitude
same,electrical behavior,[7]; normal myocardium,minimal changes
same,neuronal response to epicardial application,[4],inconsistent neuronal responses
same,NE concentration in the cardiac interstitial fluid (ISF),"[8]; ANG II 100 μM, 1 ml/min into RAGP blood supply, anesthetized dog",to the same extent as achieved during electrical stimulation of the stellate ganglia
same,EPI spillover into the coronary sinus,[8]; ANG II stimulation,Neither stellate nor ANG II stimulation evoked EPI spillover
nitroprusside,neuronal response to epicardial application,[4],responsive
"substance P (RPKPQQFFGLM-NH2; ends and bridges not checked; UniProt P20366 58-68, looked up)",ACh evoked potentials,[9],blocked
